Laboratory results from patent publication US11649238B2, “Substituted pyrazolo[1,5-a]pyrimidines as PI4K inhibitors” (GLAXOSMITHKLINE INTELLECTUAL PROPERTY DEVELOPMENT LIMITED, priority 2018, dated 2023).

Biological target: T1, human PI4KIII-beta 13-828 (D316-330) (Homo sapiens, UniProt Q9UBF8)
T1 construct: human PI4KIII-beta 13-828 (D316-330)
Test: PI4 KB Activity Assay (ADP-GLO Kinase assay)
Type: biochemical
Conditions: 1 mM ATP, 60 μM phosphatidylinositol, 3 hours at room temperature; read-out: mean pIC50 (converted)
Method: The in vitro inhibition of human PI4KIII-beta 13-828 (D316-330) activity was determined by using the ADP-GLO Kinase assay kit from Promega. Inhibitors were dissolved in 100% DMSO at a concentration of 1 mM. Dilutions were prepared in 100% DMSO using a 1 in 3 serial step dilution. A 60 nL stamp from an 11-point titration was transferred to a white low volume 384 well Greiner assay plate ensuring a final DMSO concentration of 1% across the plate and a top final concentration of inhibitor of 10 μM. The PI4KIII-beta assay contained 25 mM Hepes pH 7.5 (NaOH), 10 mM MgCl2, 0.5 mM EGTA, 0.1% Triton X-100, 2 mM TCEP, and 0.1 mg/ml BSA, 1 mM ATP, 60 μM phosphatidylinositol, and 1.5 nM human PI4K-beta 13-828 (D316-330) in a total volume of 6 μL. The assay was initiated with the addition of enzyme, covered, and incubated at room temperature for 3 hours. The assays were stopped with the addition of 6 μl ADP-GLO Reagent containing 0.1% CHAPS to deplete the unconsumed ATP. The plates were incubated at room temperature for 60 min and then 12 μl of the Kinase Detection Reagent containing 0.1% CHAPS was added to convert ADP to ATP and introduce luciferase and luciferin. After 40 min incubation at room temperature the luminescent signal was read on a BMG Labtech PHERAstar FS with the following settings; Gain 3600, Focal height 13.7 mm, measurement interval time 1 s, Settling time 0.2 s. The inhibitory effect of the PI4K-beta activity of the compounds was evaluated by the IC50 of the response relative to the high, no compound, and low, no enzyme, controls by fitting to the four parameter dose response question.

T1 sequence (Q9UBF8 1-801 isoform Q9UBF8-2): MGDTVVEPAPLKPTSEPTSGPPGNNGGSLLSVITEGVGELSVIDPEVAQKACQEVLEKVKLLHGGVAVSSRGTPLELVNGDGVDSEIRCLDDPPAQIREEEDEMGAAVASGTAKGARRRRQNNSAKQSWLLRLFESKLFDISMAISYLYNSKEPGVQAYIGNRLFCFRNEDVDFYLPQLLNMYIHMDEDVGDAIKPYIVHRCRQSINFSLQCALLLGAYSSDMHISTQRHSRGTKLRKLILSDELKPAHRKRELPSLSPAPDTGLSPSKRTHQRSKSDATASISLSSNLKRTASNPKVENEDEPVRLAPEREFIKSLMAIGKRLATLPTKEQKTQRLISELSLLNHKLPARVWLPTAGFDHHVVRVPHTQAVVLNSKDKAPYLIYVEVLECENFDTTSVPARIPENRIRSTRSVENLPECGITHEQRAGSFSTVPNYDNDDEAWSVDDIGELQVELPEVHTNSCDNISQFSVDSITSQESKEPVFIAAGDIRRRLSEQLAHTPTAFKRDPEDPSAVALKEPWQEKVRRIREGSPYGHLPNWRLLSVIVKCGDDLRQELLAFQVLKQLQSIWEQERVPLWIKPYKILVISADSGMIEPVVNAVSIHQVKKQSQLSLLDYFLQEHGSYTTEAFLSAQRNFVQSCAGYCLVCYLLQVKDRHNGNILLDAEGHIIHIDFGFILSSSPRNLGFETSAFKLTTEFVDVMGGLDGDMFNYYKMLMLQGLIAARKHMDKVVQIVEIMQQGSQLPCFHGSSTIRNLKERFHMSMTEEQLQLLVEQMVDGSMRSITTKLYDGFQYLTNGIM

IC50, ≤ 3.98 nM:
Cc1ccc(-c2c(C)nn3c(NCc4cccc(-c5nccn5C)c4)cc(C(C)(C)O)nc23)cc1C(=O)N1CCC(C)(O)C1 (centres unmarked) [Compound 31]
Cc1nn2c(NCc3cccc(-c4nccn4C)c3)cc(C(C)(C)O)nc2c1-c1ccc(Cl)c(C(=O)N(C)CCCO)c1 [Compound 7, 2-Chloro-5-(5-(2-hydroxypropan-2-yl)-2-methyl-7-((3-(1-methyl-1H-imidazol-2-yl)benzyl)amino)pyrazolo[1,5-a]pyrimidin-3-yl)-N-(3-hydroxypropyl)-N-methylbenzamide]
CCC(O)(CC)c1cc(NCc2cccc(-c3nccn3C)c2)n2nc(C)c(-c3ccc(C)c(C(=O)N(C)CCCO)c3)c2n1 [Compound 68, 5-(5-(3-Hydroxypentan-3-yl)-2-methyl-7-((3-(1-methyl-1H-imidazol-2-yl)benzyl)amino)pyrazolo[1,5-a]pyrimidin3-yl)-N-(3-hydroxypropyl)-N,2-dimethylbenzamide]
COc1ccc(-c2c(C)nn3c(NCc4cccc(-n5cccn5)c4)cc(C(C)(C)O)nc23)cc1C(=O)N(C)CCCO [Compound 33]
COc1ccc(-c2c(C)nn3c(NCc4cccc(-n5cccn5)c4)cc(C(C)(C)O)nc23)cc1C(=O)N(C)CCO [Compound 46]
Cc1nn2c(NCc3cccc(-c4nccn4C)c3)cc(C(C)(C)O)nc2c1-c1ccc(Cl)c(C(=O)N2CC[C@H](O)C2)c1 [Compound 18]
COc1ccc(-c2c(C)nn3c(NCc4cccc(-c5nccn5C)c4)cc(C(C)(C)CO)nc23)cc1S(=O)(=O)CCO [Compound 56, 2-(3-(3-((2-Hydroxyethyl)sulfonyl)-4-methoxyphenyl)-2-methyl-7-((3-(1-methyl-1H-imidazol-2-yl)benzyl)amino)pyrazolo[1,5-a]pyrimidin-5-yl)-2-methylpropan-1-ol]
COc1ccc(-c2c(C)nn3c(NCc4cccc(-c5nccn5C)c4)cc(C(C)(C)O)nc23)cc1C(=O)N(C)CC(C)O (single isomer, unassigned) [Compound 83, 5-(5-(2-Hydroxypropan-2-yl)-2-methyl-7-((3-(1-methyl-1H-imidazol-2-yl)benzyl)amino)pyrazolo[1,5-a]pyrimidin-3-yl)-N-(2-hydroxypropyl)-2-methoxy-N-methylbenzamide]
COc1ccc(-c2c(C)nn3c(NCc4cccc(-n5cccn5)c4)cc(C(C)(C)O)nc23)cc1C(=O)N1CC[C@H](O)C1 [Compound 52]
Cc1nn2c(NCc3cccc(-c4nccn4C)c3)cc(C(C)O)nc2c1-c1ccc(Cl)c(C(=O)N(C)CCCO)c1 (centres unmarked) [Compound 10]
Cc1ccc(-c2c(C)nn3c(NCc4cccc(-n5cccn5)c4)cc(C(C)(C)O)nc23)cc1C(=O)N1CCC[C@@H]1CO [Compound 35]
CCC(CO)c1cc(NCc2cccc(-c3nccn3C)c2)n2nc(C)c(-c3ccc(C)c(C(=O)N(C)CCCO)c3)c2n1 (centres unmarked) [Compound 65, 5-(5-(1-Hydroxybutan-2-yl)-2-methyl-7-((3-(1-methyl-1H-imidazol-2-yl)benzyl)amino)pyrazolo[1,5-a]pyrimidin-3-yl)-N-(3-hydroxypropyl)-N,2-dimethylbenzamide]
Cc1ccc(-c2c(C)nn3c(NCc4cccc(-c5nccn5C)c4)cc(C(C)(C)O)nc23)cc1C(=O)N(C)CC(C)O (centres unmarked) [Compound 61]
COc1ccc(-c2c(C)nn3c(NCc4cccc(-n5cccn5)c4)cc(C(C)(C)O)nc23)cc1C(=O)N1CCC(C)(O)C1 (centres unmarked) [Compound 51]
COc1ccc(-c2c(C)nn3c(NCc4cccc(-c5nccn5C)c4)cc(C(O)C(C)C)nc23)cc1S(=O)(=O)CCO (centres unmarked) [Compound 5]
CCC(O)c1cc(NCc2cccc(-c3nccn3C)c2)n2nc(C)c(-c3ccc(OC)c(S(=O)(=O)CCO)c3)c2n1 (centres unmarked) [Compound 3]
Cc1nn2c(NCc3cccc(-c4nccn4C)c3)cc(C(C)O)nc2c1-c1ccc(Cl)c(C(=O)N2CC[C@H](O)C2)c1 (some centres unmarked) [Compound 14]
Cc1ccc(-c2c(C)nn3c(NCc4cccc(-c5nccn5C)c4)cc(C(C)(C)O)nc23)cc1C(=O)N(C)CCO [Compound 43, N-(2-hydroxyethyl)-5-(5-(2-hydroxypropan-2-yl)-2-methyl-7-((3-(1-methyl-1H-imidazol-2-yl)benzyl)amino)pyrazolo[1,5-a]pyrimidin-3-yl)-N,2-dimethylbenzamide]
COc1ccc(-c2c(C)nn3c(NCc4cccc(-c5nccn5C)c4)cc(C(C)(C)O)nc23)cc1C(=O)N1CCC[C@@H]1CO [Compound 36, (R)-(2-(hydroxymethyl)pyrrolidin-1-yl)(5-(5-(2-hydroxypropan-2-yl)-2-methyl-7-((3-(1-methyl-1H-imidazol-2-yl)benzyl)amino)pyrazolo[1,5-a]pyrimidin-3-yl)-2-methoxyphenyl)methanone]
COc1ccc(-c2c(C)nn3c(NCc4cccc(-c5nccn5C)c4)cc(C(C)(C)O)nc23)cc1C(=O)N(C)[C@@H](C)CO [Compound 20, (S)—N-(1-hydroxypropan-2-yl)-5-(5-(2-hydroxypropan-2-yl)-2-methyl-7-((3-(1-methyl-1H-imidazol-2-yl)benzyl)amino)pyrazolo[1,5-a]pyrimidin-3-yl)-2-methoxy-N-methylbenzamide]
COc1ccc(-c2c(C)nn3c(NCc4cccc(-c5nccn5C)c4)cc(C(C)O)nc23)cc1S(C)(=O)=O (centres unmarked) [Compound 1, 1-(3-(4-Methoxy-3-(methylsulfonyl)phenyl)-2-methyl-7-((3-(1-methyl-1H-imidazol-2-yl)benzyl)amino)pyrazolo[1,5-a]pyrimidin-5-yl)ethanol]
Cc1nn2c(NCc3cccc(-n4cccn4)c3)cc(C(C)(C)O)nc2c1-c1ccc(Cl)c(C(=O)N(C)CCO)c1 [Compound 48]
CCN(CCO)C(=O)c1cc(-c2c(C)nn3c(NCc4cccc(-c5nccn5C)c4)cc(C(C)O)nc23)ccc1OC (centres unmarked) [Compound 11]
Cc1ccc(-c2c(C)nn3c(NCc4cccc(-n5cccn5)c4)cc(C(C)(C)O)nc23)cc1C(=O)N1CC[C@H](O)C1 [Compound 50]
CCC(CO)c1cc(NCc2cccc(-c3nccn3C)c2)n2nc(C)c(-c3ccc(C)c(C(=O)N(C)CCCO)c3)c2n1 (single isomer, unassigned) [Compound 66, 5-(5-(1-Hydroxybutan-2-yl)-2-methyl-7-((3-(1-methyl-1H-imidazol-2-yl)benzyl)amino)pyrazolo[1,5-a]pyrimidin-3-yl)-N-(3-hydroxypropyl)-N,2-dimethylbenzamide]
COc1ccc(-c2c(C)nn3c(NCc4cccc(-c5nccn5C)c4)cc(C(C)(C)O)nc23)cc1C(=O)N1CCCC1CO (centres unmarked) [Compound 44]
COc1ccc(-c2c(C)nn3c(NCc4cccc(-c5nccn5C)c4)cc(C(C)(C)O)nc23)cc1C(=O)N(C)C(C)CO (centres unmarked) [Compound 42]
Cc1ccc(-c2c(C)nn3c(NCc4cccc(-c5nccn5C)c4)cc(C(C)(C)O)nc23)cc1C(=O)N1CCC[C@@H]1CO [Compound 25, (R)-(2-(hydroxymethyl)pyrrolidin-1-yl)(5-(5-(2-hydroxypropan-2-yl)-2-methyl-7-((3-(1-methyl-1H-imidazol-2-yl)benzyl)amino)pyrazolo[1,5-a]pyrimidin-3-yl)-2-methylphenyl)methanone]
Cc1ccc(-c2c(C)nn3c(NCc4cccc(-c5nccn5C)c4)cc(C(C)(C)O)nc23)cc1C(=O)N1CC[C@H](O)C1 [Compound 29, (S)-(5-(5-(2-hydroxypropan-2-yl)-2-methyl-7-((3-(1-methyl-1H-imidazol-2-yl)benzyl)amino)pyrazolo[1,5-a]pyrimidin-3-yl)-2-methylphenyl)(3-hydroxypyrrolidin-1-yl)methanone]
CCC(O)c1cc(NCc2cccc(-c3nccn3C)c2)n2nc(C)c(-c3ccc(C)c(C(=O)N(C)CCCO)c3)c2n1 (single isomer, unassigned) [Compound 69, N-(3-Hydroxypropyl)-5-(5-(1-hydroxypropyl)-2-methyl-7-((3-(1-methyl-1H-imidazol-2-yl)benzyl)amino)pyrazolo[1,5-a]pyrimidin-3-yl)-N,2-dimethylbenzamide]
Cc1ccc(-c2c(C)nn3c(NCc4cccc(-c5nccn5C)c4)cc(C(C)(C)O)nc23)cc1C(=O)N1CCC(O)C1 (centres unmarked) [Compound 41]
COc1ccc(-c2c(C)nn3c(NCc4cccc(-c5nccn5C)c4)cc(C(C)O)nc23)cc1C(=O)N(C)CCCO (centres unmarked) [Compound 9, 5-(5-(1-Hydroxyethyl)-2-methyl-7-((3-(1-methyl-1H-imidazol-2-yl)benzyl)amino)pyrazolo[1,5-a]pyrimidin-3-yl)-N-(3-hydroxypropyl)-2-methoxy-N-methylbenzamide]
